# Measured values taken from patent publication US20070183976A1, “Composition for ultrasound therapy and pharmaceutical liquid composition containing the same” (IMARX THERAPEUTICS, INC., priority 2006, published 2007).
# Test system: artificial thrombosis
# Assay: Fibrinolysis of artificial thrombosis (Chandler's method) with ultrasonic catheter
# Assay type: biochemical, human
# Conditions: average of two tests; for time for achieving 20% fibrinolysis: FIG. 4, blood from one person
# Method: An artificial thrombosis was formed by Chandler's method. A sample of blood (1 ml) collected from a healthy person was entered into a flexible tube (inside diameter 3 mm, length 265 mm) and calcium chloride was added. The tube was shaped like a loop and was rotated at 12 r.p.m. for 20 minutes to give an artificial thrombosis model.
# A ceramic ultrasonic element (width 2 mm, length 5 mm, thickness 1 mm) was inserted into the tip of a catheter (diameter 2 mm), and an oscillating element was connected to an oscillator provided outside with a fine connector passed through the catheter. A fine tube for pouring a test solution was provided at an opening opposite to the opening of the catheter end.
# The artificial thrombosis prepared as described above was added to a test tube together with blood, and the ultrasonic catheter was inserted into the test tube so that the end of the catheter was set close to the portion of the artificial thrombosis (at a distance of about 5 mm). To the test tube was added a mixture of urokinase and a booster prepared as in Example 1 at a rate of 1 ml per minute, wherein urokinase (concentration 1200 Ill/ml) and the booster were mixed immediately before pouring at a mixing ratio of 1:1 by mass. The mixture was refluxed while keeping the volume of the test solution at a constant level by removing excess volume of the solution by suction.
# The mixture was exposed to the ultrasound at a frequency of 170 KHz to by a pulse method (exposure for 2 seconds followed by termination of exposure for 4 seconds) for 2 minutes. Total exposure time was 40 seconds). After the exposure, the ultrasonic catheter was removed from the test tube, and the mixture was incubated at 37° C. for between 5 and 120 minutes, washed with a physiological saline solution several times and dried overnight. Thereafter, the dried mixture was weighed. […]
# The rate of fibrinolysis was calculated by the following equation: Fibrinolysis rate (%)=(A−B)/A×100, wherein • A is the weight of thrombosis in control; and • B is the weight of thrombosis treated. […]
substance,measurement,setting,value
urokinase,time for achieving 20% fibrinolysis,"with exposure of ultrasound 170 KHz pulsed, 40 s total",30 min
same,time for achieving 20% fibrinolysis,"without exposure of ultrasound, urokinase 1200 IU/ml",about 45 minutes
same,treatment time at which 50% fibrinolysis was achieved,"FIG. 5, with exposure of ultrasound, energy reduced by 15%, blood from another person",60 min
